Results from BigSolDB 2.1.

Work on NC(N)=O yielded a solubility (mole fraction) (in ethanol, 293.15 K) of 0.0395, a solubility (mole fraction) (in ethanol, 303.15 K) of 0.0548 and a solubility (mole fraction) (in ethanol, 318.15 K) of 0.0874. For the same compound, the solubility (mole fraction) (in ethanol, 333.15 K) was 0.127, the solubility (mole fraction) (in ethanol, 343.15 K) was 0.155 and the solubility (mole fraction) (in isobutanol, 293.15 K) was 0.017. The solubility (mole fraction) (in isobutanol, 303.15 K) was 0.0242, the solubility (mole fraction) (in isobutanol, 318.15 K) was 0.0302 and the solubility (mole fraction) (in isobutanol, 333.15 K) was 0.0469. It also gave a solubility (mole fraction) (in isobutanol, 343.15 K) of 0.0529, a solubility (mole fraction) (in isopentanol, 293.15 K) of 0.0146 and a solubility (mole fraction) (in isopentanol, 303.15 K) of 0.0162. For the same compound, the solubility (mole fraction) (in isopentanol, 318.15 K) was 0.026, the solubility (mole fraction) (in isopentanol, 333.15 K) was 0.0368 and the solubility (mole fraction) (in isopentanol, 343.15 K) was 0.0451. The solubility (mole fraction) (in isopropanol, 293.15 K) was 0.0253, the solubility (mole fraction) (in isopropanol, 303.15 K) was 0.0306 and the solubility (mole fraction) (in isopropanol, 318.15 K) was 0.0425. The solubility (mole fraction) (in isopropanol, 333.15 K) was 0.058, the solubility (mole fraction) (in isopropanol, 343.15 K) was 0.0669 and the solubility (mole fraction) (in methanol, 293.15 K) was 0.0845. The solubility (mole fraction) (in methanol, 303.15 K) was 0.104, the solubility (mole fraction) (in methanol, 318.15 K) was 0.165 and the solubility (mole fraction) (in methanol, 333.15 K) was 0.225. The solubility (mole fraction) (in methanol, 343.15 K) was 0.266, the solubility (mole fraction) (in n-butanol, 293.15 K) was 0.0163 and the solubility (mole fraction) (in n-butanol, 303.15 K) was 0.0209. For the same compound, the solubility (mole fraction) (in n-butanol, 318.15 K) was 0.0292, the solubility (mole fraction) (in n-butanol, 333.15 K) was 0.0412 and the solubility (mole fraction) (in n-butanol, 343.15 K) was 0.0504. For the same compound, the solubility (mole fraction) (in n-pentanol, 293.15 K) was 0.0137, the solubility (mole fraction) (in n-pentanol, 303.15 K) was 0.0183 and the solubility (mole fraction) (in n-pentanol, 318.15 K) was 0.0241. The solubility (mole fraction) (in n-pentanol, 333.15 K) was 0.0354, the solubility (mole fraction) (in n-pentanol, 343.15 K) was 0.0424 and the solubility (mole fraction) (in n-propanol, 293.15 K) was 0.0246. For the same compound, the solubility (mole fraction) (in n-propanol, 303.15 K) was 0.0402, the solubility (mole fraction) (in n-propanol, 318.15 K) was 0.0384 and the solubility (mole fraction) (in n-propanol, 333.15 K) was 0.0722. For the same compound, the solubility (mole fraction) (in n-propanol, 343.15 K) was 0.0704, the solubility (mole fraction) (in water, 293.15 K) was 0.252 and the solubility (mole fraction) (in water, 303.15 K) was 0.294. It also gave a solubility (mole fraction) (in water, 318.15 K) of 0.36, a solubility (mole fraction) (in water, 333.15 K) of 0.41 and a solubility (mole fraction) (in water, 343.15 K) of 0.465.
